Measurements published in ChEMBL document CHEMBL1201862, “PubChem BioAssay data set” (2004).
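Assay format: 96-well plates, 48-hour exposure. The concentration for 50% growth inhibition is given as GI50.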 Calls of active or inactive are those of the source. Rule as the data show it: active = GI50 up to about 1.1 µM and inactive = higher.

Legend:
Test in all cases: NCI anticancer screen, dose series, 48 h
[1] = system: OVCAR-8
[2] = system: SN12C
[3] = system: LOX IMVI
[4] = system: PC-3
[5] = system: SNB-75
[6] = system: NCI-H522
[7] = system: MOLT-4
[8] = system: SK-MEL-28
[9] = system: UACC-62
[10] = system: HCC 2998
[11] = system: Hs-578T
[12] = system: A549
[13] = system: SR
[14] = system: NCI-H23
[15] = system: SF-295
[16] = system: SK-OV-3
[17] = system: NCI/ADR-RES
[18] = system: A498
[19] = system: U-251
[20] = system: HCT-116

Measured: GI50

CN(C)C(=S)NC(=S)Nc1ccc2ccccc2c1
inactive: [1] 9.64 µM | [2] 2.69 µM | [3] 6.64 µM | [4] 6.1 µM | [5] 24.3 µM | [6] 5.7 µM | [7] 4.93 µM | [8] 14.5 µM | [9] 2.14 µM | [10] 15.5 µM | [11] 33.1 µM | [12] 6.73 µM | [13] 3.97 µM | [14] 9.64 µM | [15] 4.55 µM | [16] 24.8 µM | [17] 13.8 µM | [18] 12.6 µM | [19] 11.6 µM | [20] 6.65 µM

O=C1CC(NC2CC(=O)c3c(Br)sc(Br)c32)c2c(Br)sc(Br)c21 (stereo not given)
inactive: [1] 3.26 µM | [2] 1.56 µM | [3] 1.92 µM | [4] 2.48 µM | [5] 15.7 µM | [6] 1.81 µM | [7] 2.26 µM | [8] 7.85 µM | [9] 11.9 µM | [10] 17 µM | [11] 4.91 µM | [12] 17.5 µM | [13] 2.28 µM | [14] 9.48 µM | [15] 13.6 µM | [16] 17.8 µM | [17] 13.9 µM | [18] 18.6 µM | [19] 1.82 µM | [20] 2.14 µM
